# Laboratory results from PubChem BioAssay (NCI).
#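 Interpolation was linear, between the two tested concentrations surrounding the appropriate level; five concentrations were tested over 48 hours in 96-well plates. GI50 marks 50% less growth. The concentration for full growth arrest is given as TGI.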
# Experiments:
# Test in all cases: NCI anticancer screen, dose series, 48 h
# MALME-3M melanoma = system: MALME-3M melanoma
# HOP-62 NSCLC = system: HOP-62 NSCLC
# OVCAR-8 ovarian = system: OVCAR-8 ovarian
# UACC-257 melanoma = system: UACC-257 melanoma
# HCC-2998 colon = system: HCC-2998 colon
# MDA-MB-435 = system: MDA-MB-435
# NCI-H226 lung = system: NCI-H226 lung
# MCF7 breast = system: MCF7 breast
# KM12 colon = system: KM12 colon
# MOLT-4 leukemia = system: MOLT-4 leukemia
# LOX IMVI melanoma = system: LOX IMVI melanoma
# SK-MEL-28 melanoma = system: SK-MEL-28 melanoma
# SN12C renal = system: SN12C renal
# CCRF-CEM leukemia = system: CCRF-CEM leukemia
# M14 melanoma = system: M14 melanoma
# OVCAR-3 ovarian = system: OVCAR-3 ovarian
# HS 578T breast = system: HS 578T breast
# COLO 205 colon = system: COLO 205 colon
# HL-60(TB) leukemia = system: HL-60(TB) leukemia
# SNB-75 CNS = system: SNB-75 CNS
# SK-OV-3 ovarian = system: SK-OV-3 ovarian
# ACHN renal = system: ACHN renal
# SK-MEL-2 melanoma = system: SK-MEL-2 melanoma
# RXF 393 renal = system: RXF 393 renal
# DU-145 prostate = system: DU-145 prostate
# SF-268 CNS = system: SF-268 CNS
# SR leukemia = system: SR leukemia
# MDA-MB-231 breast = system: MDA-MB-231 breast
# U251 CNS = system: U251 CNS
# BT-549 breast = system: BT-549 breast
# SNB-19 CNS = system: SNB-19 CNS
# PC-3 prostate = system: PC-3 prostate
# OVCAR-5 ovarian = system: OVCAR-5 ovarian
# IGROV1 ovarian = system: IGROV1 ovarian
# T-47D breast = system: T-47D breast
# SF-295 CNS = system: SF-295 CNS
# A498 renal = system: A498 renal
# SF-539 CNS = system: SF-539 CNS
# NCI-H460 lung = system: NCI-H460 lung
# HT29 colon = system: HT29 colon
# HOP-92 NSCLC = system: HOP-92 NSCLC
# NCI-H23 lung = system: NCI-H23 lung
# CAKI-1 renal = system: CAKI-1 renal
# HCT-15 colon = system: HCT-15 colon
# SW-620 colon = system: SW-620 colon
# NCI-H522 lung = system: NCI-H522 lung
# NCI/ADR-RES ovarian = system: NCI/ADR-RES ovarian
# OVCAR-4 ovarian = system: OVCAR-4 ovarian
# TK-10 renal = system: TK-10 renal
# UO-31 renal = system: UO-31 renal
# EKVX NSCLC = system: EKVX NSCLC
# A549 NSCLC = system: A549 NSCLC
# UACC-62 melanoma = system: UACC-62 melanoma
# RPMI-8226 leukemia = system: RPMI-8226 leukemia
# HCT-116 colon = system: HCT-116 colon
# SK-MEL-5 melanoma = system: SK-MEL-5 melanoma
# 786-0 renal = system: 786-0 renal
# K-562 leukemia = system: K-562 leukemia
smiles,measurement,setting,value
C#Cc1cccc(NC(=O)c2ccc(NC(=O)CCl)cc2)c1,GI50,MALME-3M melanoma,16.4 µM
same,TGI,MALME-3M melanoma,53.3 µM
same,GI50,HOP-62 NSCLC,68.3 µM
same,TGI,HOP-62 NSCLC,> 82.5 µM
same,GI50,OVCAR-8 ovarian,22.5 µM
same,TGI,OVCAR-8 ovarian,> 82.5 µM
same,GI50,UACC-257 melanoma,> 82.5 µM
same,TGI,UACC-257 melanoma,> 82.5 µM
same,GI50,HCC-2998 colon,> 82.5 µM
same,TGI,HCC-2998 colon,> 82.5 µM
same,GI50,MDA-MB-435,43.8 µM
same,TGI,MDA-MB-435,> 82.5 µM
same,GI50,NCI-H226 lung,48.7 µM
same,TGI,NCI-H226 lung,> 82.5 µM
same,GI50,MCF7 breast,22.6 µM
same,TGI,MCF7 breast,> 82.5 µM
same,GI50,KM12 colon,47 µM
same,TGI,KM12 colon,> 82.5 µM
same,GI50,MOLT-4 leukemia,12.4 µM
same,TGI,MOLT-4 leukemia,40 µM
same,GI50,LOX IMVI melanoma,11.2 µM
same,TGI,LOX IMVI melanoma,23.5 µM
same,GI50,SK-MEL-28 melanoma,> 82.5 µM
same,TGI,SK-MEL-28 melanoma,> 82.5 µM
same,GI50,SN12C renal,18.6 µM
same,TGI,SN12C renal,> 82.5 µM
same,GI50,CCRF-CEM leukemia,7.37 µM
same,TGI,CCRF-CEM leukemia,32.4 µM
same,GI50,M14 melanoma,22.2 µM
same,TGI,M14 melanoma,> 82.5 µM
same,GI50,OVCAR-3 ovarian,12.7 µM
same,TGI,OVCAR-3 ovarian,25.7 µM
same,GI50,HS 578T breast,27.9 µM
same,TGI,HS 578T breast,> 82.5 µM
same,GI50,COLO 205 colon,23.7 µM
same,TGI,COLO 205 colon,> 82.5 µM
same,GI50,HL-60(TB) leukemia,15.7 µM
same,TGI,HL-60(TB) leukemia,45 µM
same,GI50,SNB-75 CNS,17.2 µM
same,TGI,SNB-75 CNS,> 82.5 µM
same,GI50,SK-OV-3 ovarian,> 82.5 µM
same,TGI,SK-OV-3 ovarian,> 82.5 µM
same,GI50,ACHN renal,26.3 µM
same,TGI,ACHN renal,> 82.5 µM
same,GI50,SK-MEL-2 melanoma,69.8 µM
same,TGI,SK-MEL-2 melanoma,> 82.5 µM
same,GI50,RXF 393 renal,23.9 µM
same,TGI,RXF 393 renal,> 82.5 µM
same,GI50,DU-145 prostate,> 82.5 µM
same,TGI,DU-145 prostate,> 82.5 µM
same,GI50,SF-268 CNS,18.7 µM
same,TGI,SF-268 CNS,> 82.5 µM
same,GI50,SR leukemia,7.17 µM
same,TGI,SR leukemia,26.6 µM
same,GI50,MDA-MB-231 breast,24 µM
same,TGI,MDA-MB-231 breast,> 82.5 µM
same,GI50,U251 CNS,14.9 µM
same,TGI,U251 CNS,34.8 µM
same,GI50,BT-549 breast,11.1 µM
same,TGI,BT-549 breast,23.9 µM
same,GI50,SNB-19 CNS,55.6 µM
same,TGI,SNB-19 CNS,> 82.5 µM
same,GI50,PC-3 prostate,15.4 µM
same,TGI,PC-3 prostate,60.4 µM
same,GI50,OVCAR-5 ovarian,21.4 µM
same,TGI,OVCAR-5 ovarian,> 82.5 µM
same,GI50,IGROV1 ovarian,10.6 µM
same,TGI,IGROV1 ovarian,23.7 µM
same,GI50,T-47D breast,31.2 µM
same,TGI,T-47D breast,> 82.5 µM
same,GI50,SF-295 CNS,> 82.5 µM
same,TGI,SF-295 CNS,> 82.5 µM
same,GI50,A498 renal,> 82.5 µM
same,TGI,A498 renal,> 82.5 µM
same,GI50,SF-539 CNS,12.6 µM
same,TGI,SF-539 CNS,24.7 µM
same,GI50,NCI-H460 lung,29.2 µM
same,TGI,NCI-H460 lung,> 82.5 µM
same,GI50,HT29 colon,16 µM
same,TGI,HT29 colon,45.4 µM
same,GI50,HOP-92 NSCLC,11.4 µM
same,TGI,HOP-92 NSCLC,26.4 µM
same,GI50,NCI-H23 lung,14.9 µM
same,TGI,NCI-H23 lung,38.4 µM
same,GI50,CAKI-1 renal,> 82.5 µM
same,TGI,CAKI-1 renal,> 82.5 µM
same,GI50,HCT-15 colon,9.95 µM
same,TGI,HCT-15 colon,25 µM
same,GI50,SW-620 colon,15.7 µM
same,TGI,SW-620 colon,34 µM
same,GI50,NCI-H522 lung,13.5 µM
same,TGI,NCI-H522 lung,35 µM
same,GI50,NCI/ADR-RES ovarian,19.6 µM
same,TGI,NCI/ADR-RES ovarian,67.1 µM
same,GI50,OVCAR-4 ovarian,16.7 µM
same,TGI,OVCAR-4 ovarian,72 µM
same,GI50,TK-10 renal,42.7 µM
same,TGI,TK-10 renal,> 82.5 µM
same,GI50,UO-31 renal,9.48 µM
same,TGI,UO-31 renal,20.3 µM
same,GI50,EKVX NSCLC,> 82.5 µM
same,TGI,EKVX NSCLC,> 82.5 µM
same,GI50,A549 NSCLC,> 82.5 µM
same,TGI,A549 NSCLC,> 82.5 µM
same,GI50,UACC-62 melanoma,36.9 µM
same,TGI,UACC-62 melanoma,> 82.5 µM
same,GI50,RPMI-8226 leukemia,14.7 µM
same,TGI,RPMI-8226 leukemia,44.1 µM
same,GI50,HCT-116 colon,11.9 µM
same,TGI,HCT-116 colon,36.3 µM
same,GI50,SK-MEL-5 melanoma,24.9 µM
same,TGI,SK-MEL-5 melanoma,> 82.5 µM
same,GI50,786-0 renal,14.6 µM
same,TGI,786-0 renal,29.8 µM
same,GI50,K-562 leukemia,17.4 µM
same,TGI,K-562 leukemia,> 82.5 µM
